Data as given in patent publication US20210221890A1, “COMBINATION OF BETA-ADRENERGIC RECEPTOR ANTAGONISTS AND CHECK POINT INHIBITORS FOR IMPROVED EFFICACY AGAINST CANCER” (Health Research, Inc., priority 2015, published 2021).

Tests used:
4T1 breast cancer model = 4T1 breast cancer model tumor growth in BALB/c mice; type: in vivo; conditions: 4T1 in BALB/c mice; propranolol started three days before anti-PD-1
[1] = system: murine pancreatic tumor (Pan02); experiment: Pan02 pancreatic tumor growth in C57BL/6 mice; type: in vivo
Method: To obtain the data presented in FIG. 1, a murine pancreatic tumor (Pan02) was engrafted in C57BL/6 mice. When tumors reached an average size of 50-100 mm^3, tumor bearing mice were assigned to one of four experimental groups and treatment was initiated. Groups of mice received: (1) saline (control), (2) anti-PD-1 antibody (BIO X CELL®, 200 μg/dose every 3 days), (3) the β-adrenergic signaling antagonist propranolol (10 mg/kg daily by intraperitoneal injection) or (4) combination therapy. Tumor growth was monitored and graphed as relative tumor volume compared to each tumor's starting volume. […] The data accordingly indicate that the combination therapy can be effective against pancreatic tumors that are resistant to treatment with the checkpoint inhibitor alone.

CC(C)NCC(O)COc1cccc2ccccc12 (stereo not drawn) [propranolol]
tumor growth (absolute and relative tumor volume) (4T1 breast cancer model): neither propranolol nor anti-PD-1 mAb alone has any impact on tumor growth
tumor growth (relative tumor volume compared to starting volume) ([1]; Pan02 in C57BL/6 mice, anti-PD-1 200 μg/dose every 3 days, propranolol 10 mg/kg daily i.p., Students t-test): neither anti-PD-1 nor propranolol alone caused a statistically significant decrease in tumor growth
efficacy of anti-PD-1 checkpoint inhibition ([1]; propranolol added to anti-PD-1, Pan02 tumors in C57BL/6 mice, p<0.05): significantly improved the efficacy of anti-PD-1 checkpoint inhibition
